The values below come from patent EP0942754B1, “CONJUGATES USEFUL IN THE TREATMENT OF PROSTATE CANCER” (priority 1996, dated 1998).

The target in series [1] is T1, enzymatically active free PSA (Homo sapiens, UniProt P07288).
T1 construct: enzymatically active free PSA
Put plainly: Recognition of oligopeptide-doxorubicin conjugates by free PSA (HPLC, time to 50% cleavage). Particulars: conjugate added to PSA at a molar ratio of 100 to 1 in PSA digestion buffer; free conjugate tested. Format: biochemical. The method, then:
The conjugates prepared as described in Examples 3-5 were individually dissolved in PSA digestion buffer (12 mM tris(hydroxymethyl)-aminomethane pH8.0, 25 mM NaCl, 0.5 mM CaCl2) and the solution added to PSA at a molar ration of 100 to 1. Alternatively, the PSA digestion buffer utilized is 50 mM tris(hydroxymethyl)-aminomethane pH7.4, 140 mM NaCl. The reaction is quenched after various reaction times by the addition of trifluoroacetic acid (TFA) to a final 1% (volume/volume). Alternatively the reaction is quenched with 10mM ZnCl2. The quenched reaction was analyzed by HPLC on a reversed-phase C18 column using an aqueous 0.1%TFA/acetonitrile gradient. […] If no salt is indicated for the conjugate, the free conjugate was tested. The oligopeptide-cytotoxic agent conjugates described in Examples 4 and 5 were assessed for the amount of time (in minutes) required for 50% cleavage of the oligopeptide with enzymatically active free PSA and 50% cleavage occurred in less than 2 hours for those conjugates.

Series [2] concerns LNCap prostate tumor cells (which express enzymatically active PSA). The series can be described thus: In vitro cytotoxicity of peptidyl derivatives of doxorubicin, Alamar Blue assay, LNCaP cells. Particulars: 72 HRS incubation, free conjugate tested, read-out: LNCaP Cell Kill in 72 HRS EC 50. The series is classed as cell-based. The method, then:
(§1) The cytotoxicities of the cleaveable oligopeptide-doxorubicin conjugates, prepared as described in Examples 3 and 4, against a line of cells which is known to be killed by unmodified doxorubicin were assessed with an Alamar Blue assay. Specifically, cell cultures of LNCap prostate tumor cells (which express enzymatically active PSA) or DuPRO cells in 96 well plates was diluted with medium ([…]-α [MEM-α]) containing various concentrations of a given conjugate (final plate well volume of 200µl). The cells were incubated for 3 days at 37°C, 20µl of Alamar Blue is added to the assay well. The cells were further incubated and the assay plates were read on a EL-310 ELISA reader at the dual wavelengths of 570 and 600 nm at 4 and 7 hours after addition of Alamar Blue. Relative percentage viability at the various concentration of conjugate tested was then calculated versus control (no conjugate) cultures. If no salt is indicated, the free conjugate was tested.

The test system of the next series is DuPRO cells. Put plainly: In vitro cytotoxicity of peptidyl derivatives of doxorubicin, Alamar Blue assay, DuPRO cells. Format: cell-based. Particulars: DuPRO cells (value in parentheses in the LNCaP column), 72 HRS incubation, read-out: Cell Kill in 72 HRS EC 50 (µM), DuPRO. The method, then:
as §1
Background: The colour change of resazurin is a common sign of viable cells or microbes.

Non-standard residues stand in square brackets, D forms with d. Residues, ends and D or L forms follow the SMILES beside them. *: point of attachment. Doxorubicin(3'-N) = COc1cccc2c1C(=O)c1c(O)c3c(c(O)c1C2=O)C[C@@](O)(C(=O)CO)C[C@@H]3O[C@H]1C[C@H](N*)[C@H](O)[C@H](C)O1; Hyp = O=C(O)[C@@H]1C[C@@H](O)CN1; tBuAla = CC(C)(C)C[C@H](N)C(=O)O; Chg = N[C@H](C(=O)O)C1CCCCC1

T1 sequence (P07288 25-261): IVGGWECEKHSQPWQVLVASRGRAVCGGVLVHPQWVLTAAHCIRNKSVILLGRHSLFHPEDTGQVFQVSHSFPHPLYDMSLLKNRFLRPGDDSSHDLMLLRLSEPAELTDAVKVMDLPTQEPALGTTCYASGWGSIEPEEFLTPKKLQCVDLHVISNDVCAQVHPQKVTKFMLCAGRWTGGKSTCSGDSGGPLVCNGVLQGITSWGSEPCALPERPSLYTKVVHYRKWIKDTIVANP

On to `COc1cccc2c1C(=O)c1c(O)c3c(c(O)c1C2=O)C[C@@](O)(C(=O)CO)C[C@@H]3O[C@H]1C[C@H](NC(=O)[C@H](CC(C)C)NC(=O)[C@H](CO)NC(=O)[C@H](CCC(N)=O)NC(=O)[C@@H](NC(=O)[C@H](CO)NC(=O)[C@H](C)NC(=O)[C@@H]2C[C@@H](O)CN2C(C)=O)C2CCCCC2)[C@H](O)[C@H](C)O1` [Ac-(4-trans-L-Hyp)ASChgQ-SL-DOX (3'), [N-Ac-(4-trans-L-Hyp)]-Ala-Ser-Chg-Gln-Ser-Leu-Dox] (HELM PEPTIDE1{[ac].[Hyp].A.S.[O=C([C@@H](N[*:1])C1CCCCC1)[*:2]].Q.S.L.[COc1cccc2c1C(=O)c1c(O)c3c(c(O)c1C2=O)C[C@@](O)(C(=O)CO)C[C@@H]3O[C@H]1C[C@H](N[*:1])[C@H](O)[C@H](C)O1]}$$$$V2.0), for which the “Time to 50% Substrate Cleavage by PSA” value in series [1] amounted to 20 min. The EC50 in series [2] was found to be 4.5 µM; with DuPRO cells, 90 µM.

On to `COc1cccc2c1C(=O)c1c(O)c3c(c(O)c1C2=O)C[C@@](O)(C(=O)CO)C[C@@H]3O[C@H]1C[C@H](NC(=O)[C@H](CC(C)(C)C)NC(=O)[C@H](CO)NC(=O)[C@H](CCC(N)=O)NC(=O)[C@@H](NC(=O)[C@H](CO)NC(=O)[C@H](C)NC(=O)[C@@H]2C[C@@H](O)CN2C(C)=O)C2CCCCC2)[C@H](O)[C@H](C)O1` [Ac-(4-trans-L-Hyp)ASChgQ-StBuAla-DOX (3')] (Ac-[Hyp]AS[Chg]QS[tBuAla]-{Doxorubicin(3'-N)}), for which the “Time to 50% Substrate Cleavage by PSA” value in series [1] was found to be 25 min. The EC50 in series [2] is 100 µM; with DuPRO cells, over 100 µM.

For Ac-(4-trans-L-Hyp)ASChgQ-SThi-DOX (3'), the “Time to 50% Substrate Cleavage by PSA (Min)” value in series [1] was “INSOLUBLE”.

With “PEG(2)-(4-trans-L-Hyp)ASChgQ-SL-DOX (3')”, the “Time to 50% Substrate Cleavage by PSA” value in series [1] came out at 20 min.
